Measured values published in patent publication US20240319209A1, “METHOD FOR QUANTIFYING AHSP PROTEIN AND ITS USE FOR PROGNOSING A HAEMOGLOBIN-RELATED DISORDER” (INSTITUT NATIONAL DE LA SANTÉ ET DE LA RECHERCHE MÉDICALE, priority 2021, published 2024).
“And” between values parts separate entries of the source, which are not always exact repeats. Identical values can stand only once. “Also recorded” adds a separate entry of the source.

Legend:
AHSP = experiment: Determination of AHSP concentration in haemolysates by sandwich ELISA; type: in vivo, human
Experimental: (§1) We centrifuged 4 mL of whole blood from each subject for 5 min at 4° C., with blood samples processed within 2 h of collection. The plasma was gently removed, leaving 3 mm above the RBCs to retain the reticulocytes; the RBCs were washed with 0.15 M NaCl and then frozen at −80° C. They were thawed on ice and lysed with four volumes of cold distilled water, and incubated for 30 min at +4° C., before centrifugation at 16,000×g for 30 min at +4° C. The RBC lysate (haemolysate) was recovered as the supernatant and stored at −80° C.
We used high-binding 96-well ELISA plates (COSTAR High Binding ELISA Plates, Corning Incorporated, Corning, NY, USA). Following each step, up to 3,3′,5,5′-tetramethylbenzidine (TMB) addition, the wells were washed three times with 300 μL DPBS-0.05% Tween-20 (DPBS-TWEEN® Tablets, Calbiochem, Millipore Corporation, Burlington, MA, USA). The wells were coated with 100 μL/well anti-Ahsp antibody (EPR12319, diluted 1:1000 in DPBS) as the capture antibody. After 2 h at 37° C., the wells were washed and blocked by incubation for 2 h at 37° C. with 300 μL blocking buffer (0.15% BSA in DPBS). The wells were washed and left to dry in air, covered with SealPlate and stored at 4° C.
Serial dilutions of recombinant AHSP stored in −80° C. were prepared (0.395 to 3 ng/mL) in blocking buffer and added to the plate in duplicate in each assay, for construction of the calibration curve. Diluted recombinant AHSP were added to the coated wells (100 μL/well) and the plates were incubated for 2 h at 37° C. The plates were washed and 100 μL of biotin-conjugated rabbit polyclonal anti-human recombinant Ahsp antibody (Met1-Ser102) (ABIN2615200, Antibodies-online Gmb, Aachen, Germany, diluted 1:255 in blocking buffer), used as the detecting antibody, were added to each well, and the plates were incubated for 1 h at 37° C. The plates were washed five times and the samples were then incubated with 100 μL/well streptavidin-HRP (DY998, R&D Systems, Minneapolis, MN, USA, diluted 1:100 in blocking buffer) for 20 min at 37° C. in the dark. Next steps, washes and incubations, were performed in the dark. The reaction was developed by adding 50 μL/well TMB as a substrate (1-Step™ Ultra TMB-ELISA, Thermo Fisher Scientific). The plates were incubated for 5-10 min, and the reaction was then stopped by adding 50 μL/well 1 N sulfuric acid. Absorbance was measured immediately, at 450 nm (A450), with a microplate reader (Eon™, BioTek Instruments Inc, Winooski, Vermont, USA).
A standard curve was generated with known concentrations and absorbances of the recombinant human AHSP, with the EON microplate reader and Gen5 software.
The haemolysates were diluted 1:1000 in blocking buffer and added (100 μL/well) to the plate coated with the capture antibody. The plates were incubated for 2 h at 37° C., washed and 100 μL of the detecting antibody were added to each well, and then the plates were incubated for 1 h at 37° C. The further procedure is the same as for the AHSP range described above. The AHSP concentrations of the diluted haemolysates were determined by comparison to the standard curve expressed as ng per mL by the microplate reader. All the concentrations of AHSP obtained are the means of four ELISAs. Finally, taking into account the 1000-fold dilution of haemolysates, the final concentrations are reported in μg AHSP per mL of haemolysate.
The inter-subject variabilities were determined by calculating the CVs for four independent measurements of biological AHSP in each haemolysate.

SS patients = experiment: Routine clinical and laboratory (haematological and biological) data in SS patients with HC treatment
α-Hb = experiment: In vitro α-Hb pool measurement in haemolysate (capture on GST-AHSP affinity support); type: in vivo, human; conditions: Treated SS patients (HC), n=10, mean ± SD; ng free α-Hb per mg total subunits per mL of lysed RBCs
Experimental: as §1
The α-Hb pool was assessed for the RBC lysates of all subjects (SS patients and controls), by capturing α-Hb subunits on GST-AHSP bound to an affinity chromatography support, as previously described.^15

[1] = HC-treated SS patients, n=10, FIG. 1
[2] = Treated SS patients (HC), n=10, mean ± SD

With `NC(=O)NO` [HC, hydroxycarbamide] the “AHSP concentration, interquartile range (IQR)” value (AHSP; HC-treated SS patients, n=10) was 1.26 to 1.76 µg/mL, the “AHSP concentration, maximum value” (AHSP; [1]) was 2.16 μg AHSP per mL of haemolysate and the “AHSP concentration, minimum value” (AHSP; [1]) was 1.18 μg AHSP per mL of haemolysate. The “Effect of HC treatment on AHSP concentration in RBCs (in words)” value (AHSP; HC-treated vs untreated SS patients, remained higher than in controls) was “significantly lower; also recorded: significantly decreased”, the “Measured [AHSP], individual treated patients” value (AHSP; Individual HC-treated SS patients P13-P22, average of 3 or 4 independent measurements ± SD, haemolysate) was 1.37 ± 0.17 µg/mL and 2.16 ± 0.29 µg/mL and 1.99 ± 0.26 µg/mL and 1.32 ± 0.13 µg/mL and 1.18 ± 0.21 µg/mL and 1.29 ± 0.23 µg/mL and 1.19 ± 0.28 µg/mL and 1.34 ± 0.15 µg/mL and 1.44 ± 0.17 µg/mL and 1.69 ± 0.15 µg/mL and the “Measured [AHSP], group mean” value (AHSP; Treated SS patients (HC), n=10, mean ± SD, RBC haemolysate) was 1.50 ± 0.34 µg/mL. For the same molecule, the LDH (SS patients; Treated SS patients (HC), n = 9, mean ± SD) was 403.2 ± 68.09 U/L, the “DRBCs (dense dehydrated RBCs, density > 1.110 g/mL)” value (SS patients; [2]) was 4.3% and 4.3 ± 2.54% and the Ferritin (SS patients; [2]) was 333.2 ± 206.8 µg/L. The Haematocrit (SS patients; [2]) was 28.4 ± 4.74%, the Hb (SS patients; [2]) was 9.9 ± 1.58 g/dL and the HbA2 (SS patients; [2]) was 2.04 ± 0.53%. For the same molecule, the HbF (SS patients; [2]) was 21.51% and 21.51 ± 5.36%, the HbS (SS patients; [2]) was 76.45 ± 4.9% and the MCH (SS patients; [2]) was 39.7 ± 4.76 pg. The MCHC (SS patients; [2]) was 34.8 ± 0.79 g/dL, the “MCHbF (% HbF × MCH)” value (SS patients; [2]) was 8.69 ± 2.81 pg and the “MCHbS (% HbS × MCH)” value (SS patients; [2]) was 30.22 ± 2.89 pg. For the same molecule, the MCV (SS patients; [2]) was 114.3 ± 13.43 fL, the Platelets (SS patients; [2]) was 355.8 ± 125.5 ×10^9/L and the RBC (SS patients; [2]) was 2.42 ± 0.45 ×10^12/L. For the same molecule, the RDW (SS patients; [2]) was 17 ± 2.26%, the Reticulocytes (SS patients; [2]) was 114.7 ± 45.87 ×10^9/L and the “Reticulocytes (%)” value (SS patients; [2]) was 4.57 ± 1.79%. For the same molecule, the Total bilirubin (SS patients; [2]) was 28.5 ± 14.18 µmol/L, the WBC (SS patients; Treated SS patients (stable HC treatment for at least one year), n=10, mean ± SD) was 6.88 ± 1.46 ×10^9/L and the α-Hb pool (α-Hb) was 162 ± 31 ppm.
